# Counter-ions that a name gives are not always drawn. Like-named read-outs stand apart in the source and are kept apart here.
# Experiments:
# [1] = Acute toxicity in male and female Wistar rats; details: in vivo; oral; male rat; observed 7 days
# Method: 2-(4-Benzhydryl-1-piperazinyl)ethyl methyl 2,6-dimethyl-4-(3-nitrophenyl)-1,4-dihydropyridine-3,5-dicarboxylate dihydrochloride was suspended in a 5% solution of gum arabic and orally administered to male and female Wistar rats aged 5 weeks (body weight 105 to 139 g) in a dose of 62.5, 125, 250, 500 and 1000 mg/kg (in groups of 4 to 8) and each animal so treated was observed over a period of 7 days.
# [2] = system: spontaneously hypertensive rats; assay: Renal blood flow increasing effect (renal circulation improving effect) in anesthetized male spontaneously hypertensive rats; format: in vivo; details: Rattus norvegicus
# Method: Male spontaneously hypertensive rats aged 10 to 11 weeks (3 to 6 animals per group) were anesthetized with pentobarbital and used. After laparotomy, an electromagnetic flowmeter probe (Narco) was fitted to the left renal artery and the renal blood flow was continuously recorded on a polygraph (Sanei Sokki K.K.). […] Each test compound was dissolved in polyethylene glycol 400 to prepare a stock solution. This stock solution was diluted five-fold with physiological saline and the dilution was intravenously administered to rats in a volume of 0.5 ml/kg body weight. The dosage was 0.01 mg/kg for all test compounds. The renal blood flow was measured over a period of 40 minutes following the medication. The values shown are: [formula]
# [3] = system: spontaneously hypertensive rats; assay: Antihypertensive action (systolic blood pressure, caudal artery) in male spontaneously hypertensive rats; format: in vivo, rat; details: 10 mg/kg oral; for Change in blood pressure 1 hr. after treatment / Change in blood pressure 5 hrs. after treatment: after minus before medication, * P < 0.05 vs control; for Duration of antihypertensive effect: measured 1, 5, 8 and 24 hours after administration
# Method: Male spontaneously hypertensive rats aged 10 to 11 weeks were used (in groups of 3 to 6 individuals). […] Each test compound was suspended in a 5% solution of gum arabic and orally administered. The dosage was 10 mg/kg for all compounds. Animals in a control group was given the above solution of gum arabic only.
# [4] = 1 min, 0.01 mg/kg intravenous, 1 minute, * P < 0.05 vs control, read-out: Change in renal blood flow, 1 Minute after medication
# [5] = 20 min, 0.01 mg/kg intravenous, 20 minutes, * P < 0.05 vs control, read-out: Change in renal blood flow, 20 Minutes after medication
# [6] = 40 min, 0.01 mg/kg intravenous, 40 minutes, * P < 0.05 vs control, read-out: Change in renal blood flow, 40 Minutes after medication
SMILES,LD50 at 168 h [1] [mg/kg],"change in vivo at 0.01 mg/kg [2, 4] [%]","change in vivo at 0.01 mg/kg [2, 5] [%]","change in vivo at 0.01 mg/kg [2, 6] [%]",Change in blood pressure 1 hr. after treatment [3] [mmHg],Change in blood pressure 5 hrs. after treatment [3],Duration of antihypertensive effect [3],"change in vivo at 0.01 mg/kg ([2]; iv, 1 min, read-out: Change in renal blood flow, 1 Minute after medication) [%]","change in vivo at 0.01 mg/kg ([2]; iv, 20 min, read-out: Change in renal blood flow, 20 Minutes after medication) [%]","change in vivo at 0.01 mg/kg ([2]; iv, 40 min, read-out: Change in renal blood flow, 40 Minutes after medication) [%]"
"COC(=O)C1=C(C)NC(C)=C(C(=O)OCCN2CCN(C(c3ccccc3)c3ccccc3)CC2)C1c1cccc([N+](=O)[O-])c1.Cl.Cl (stereo not shown) [2-(4-Benzhydryl-1-piperazinyl)ethyl methyl 2,6-dimethyl-4-(3-nitrophenyl)-1,4-dihydropyridine-3,5-dicarboxylate dihydrochloride]",250 to 500,,,,,,,,,
"COC(=O)C1=C(C)NC(C)=C(C(=O)OCCCN2CCN(C(c3ccccc3)c3ccccc3)CC2)C1c1cccc([N+](=O)[O-])c1 (stereo not shown) [Example 37, 3-(4-benzhydryl-1-piperazinyl)propyl methyl 2,6-dimethyl-4-(3-nitrophenyl)-1,4-dihydropyridine-3,5-dicarboxylate]",,8.5,10.8,11.3,-63,-30 mmHg,ca. 8 hrs.,,,
"COC(=O)C1=C(C)NC(C)=C(C(=O)OCCN(C)Cc2ccccc2)C1c1cccc([N+](=O)[O-])c1 (stereo not shown) [Nicardipine.HCl, reference compound]",,-15,-1.9,0.3,-38,+2 mmHg,< 5 h,,,
"COC(=O)C1=C(C)NC(C)=C(C(=O)OC)C1c1ccccc1[N+](=O)[O-] [Nifedipine, reference compound]",,,,,-45,-3 mmHg,< 5 h,3,3.1,2.2
